Experiments:
Assay in all cases: relative viability (nuclei count vs DMSO), 5 days (fraction); higher = more cells survive
Zosuquidar + Trametinib = compound: O[C@@H](COc1cccc2ncccc12)CN1CCN([C@@H]2c3ccccc3[C@@H]3[C@H](c4ccccc42)C3(F)F)CC1 [Zosuquidar] + CC(=O)Nc1cccc(-n2c(=O)n(C3CC3)c(=O)c3c(Nc4ccc(I)cc4F)n(C)c(=O)c(C)c32)c1 [Trametinib] (partner 0.02 µM)
In short: (§1)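 Relative viability was taken as the ratio of nuclei in treated wells to nuclei in vehicle wells. Lung cancer cell lines in 1536-well plates received compounds by pin tool one day after seeding, either one drug alone or a fixed anchor-drug dose plus five library-drug doses (not always all listed) in √10 steps. Nuclei were counted on 4× images after 5 days of treatment, and values are medians of duplicate plates.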

Kobe2602 + Bortezomib = compound: C1=CC(=CC=C1NC(=S)NNC2=C(C=C(C=C2[N+](=O)[O-])C(F)(F)F)[N+](=O)[O-])F [Kobe2602] + CC(C)C[C@H](NC(=O)[C@H](Cc1ccccc1)NC(=O)c1cnccn1)B(O)O [Bortezomib] (partner 0.002 µM)
In short: as §1

Kobe2602 + Luminespib = compound: C1=CC(=CC=C1NC(=S)NNC2=C(C=C(C=C2[N+](=O)[O-])C(F)(F)F)[N+](=O)[O-])F [Kobe2602] + CCNC(=O)c1noc(-c2cc(C(C)C)c(O)cc2O)c1-c1ccc(CN2CCOCC2)cc1 [Luminespib] (partner 0.01 µM)
In short: as §1

Kobe2602 + Pictilisib = compound: C1=CC(=CC=C1NC(=S)NNC2=C(C=C(C=C2[N+](=O)[O-])C(F)(F)F)[N+](=O)[O-])F [Kobe2602] + CS(=O)(=O)N1CCN(Cc2cc3nc(-c4cccc5[nH]ncc45)nc(N4CCOCC4)c3s2)CC1 [Pictilisib] (partner 1 µM)
In short: as §1

Cell Line | relative viability (Zosuquidar + Trametinib; first compound 0.01 µM) | relative viability (Zosuquidar + Trametinib; first compound 0.03162 µM) | relative viability (Zosuquidar + Trametinib; first compound 0.1 µM) | relative viability (Zosuquidar + Trametinib; first compound 0.3162 µM) | relative viability (Zosuquidar + Trametinib; first compound 1 µM) | relative viability (Kobe2602 + Bortezomib; first compound 0.2 µM) | relative viability (Kobe2602 + Bortezomib; first compound 0.6325 µM) | relative viability (Kobe2602 + Bortezomib; first compound 2 µM) | relative viability (Kobe2602 + Bortezomib; first compound 6.325 µM) | relative viability (Kobe2602 + Bortezomib; first compound 20 µM) | relative viability (Kobe2602 + Luminespib; first compound 0.2 µM) | relative viability (Kobe2602 + Luminespib; first compound 0.6325 µM) | relative viability (Kobe2602 + Luminespib; first compound 2 µM) | relative viability (Kobe2602 + Luminespib; first compound 6.325 µM) | relative viability (Kobe2602 + Luminespib; first compound 20 µM) | relative viability (Kobe2602 + Pictilisib; first compound 0.2 µM) | relative viability (Kobe2602 + Pictilisib; first compound 0.6325 µM) | relative viability (Kobe2602 + Pictilisib; first compound 2 µM) | relative viability (Kobe2602 + Pictilisib; first compound 6.325 µM) | relative viability (Kobe2602 + Pictilisib; first compound 20 µM)
HCC-44 | 1.01 | 0.999 | 0.96 | 1.09 | 1.13 | 0.882 | 0.897 | 0.826 | 0.905 | 0.813 | 1.05 | 0.97 | 0.984 | 1.13 | 0.921 | 0.63 | 0.623 | 0.684 | 1.54 | 0.662
LU99A | 0.55 | 0.597 | 0.522 | 0.537 | 0.551 | 1.13 | 1.39 | 1.12 | 1.17 | 1.22 | 0.281 | 0.29 | 0.227 | 0.2 | 0.343 | 0.317 | 0.365 | 0.312 | 0.383 | 0.359
NCI-H596 | 0.762 | 1 | 0.857 | 0.776 | 0.79 | 1.08 | 1 | 1.08 | 0.987 | 0.965 | 1.03 | 0.922 | 1.03 | 0.844 | 0.873 | 0.222 | 0.432 | 0.395 | 0.403 | 0.422
NCI-H727 | 0.391 | 0.378 |  | 0.394 | 0.383 | 0.901 | 0.883 | 0.83 | 0.885 | 0.851 | 0.581 | 0.516 | 0.4 | 0.407 | 0.414 | 0.314 | 0.356 | 0.473 | 0.331 | 0.385
NCI-H1975 | 0.431 | 0.351 | 0.299 | 0.528 | 0.337 | 0.363 | 0.392 | 0.297 | 0.365 | 0.358 | 0.365 | 0.29 | 0.229 | 0.216 | 0.288 | 0.279 | 0.276 | 0.277 | 0.256 | 0.299
NCI-H1355 | 0.461 | 0.416 | 0.435 | 0.557 | 0.401 | 1.21 | 1.21 | 1.01 | 1.07 | 1.13 | 0.795 | 0.686 | 0.607 | 0.775 | 0.75 | 0.358 | 0.526 | 0.451 | 0.429 | 0.42
NCI-H1755 | 0.762 | 0.75 | 0.755 | 0.819 | 0.75 | 1.04 | 0.971 | 0.895 | 0.96 | 1 | 0.334 | 0.425 | 0.414 | 0.395 | 0.322 | 0.445 | 0.476 | 0.421 | 0.439 | 0.435
NCI-H2009 | 0.273 | 0.208 | 0.239 | 0.285 | 0.263 | 0.961 | 1.11 | 0.97 | 1.04 | 0.949 | 1.04 | 1.1 | 1.07 | 1.09 | 0.964 | 0.843 | 0.877 | 0.874 | 0.876 | 0.897
NCI-H322M | 0.52 | 0.586 | 0.555 | 0.54 | 0.427 | 1.23 | 1.23 | 1.28 | 1.2 | 1.21 | 0.895 | 0.944 | 0.855 | 0.478 | 1.06 | 0.566 | 0.533 | 0.534 | 0.511 | 0.554
HOP-62 | 0.384 | 0.404 | 0.393 | 0.396 | 0.37 | 0.875 | 1.15 | 0.508 | 0.75 | 0.818 | 0.933 | 0.957 | 0.866 | 0.88 | 0.87 | 0.72 | 1.09 | 0.717 | 0.783 | 0.782
NCI-H838 | 0.561 | 0.465 | 0.487 | 0.617 | 0.509 | 0.748 | 0.924 | 0.99 | 0.749 | 0.725 | 0.353 | 0.395 | 0.308 | 0.268 | 0.278 | 0.393 | 0.489 | 0.426 | 0.422 | 0.418
BEN | 1.21 | 1.16 | 0.885 | 0.999 | 0.927 | 0.908 | 0.897 | 0.938 | 0.821 | 0.99 | 0.507 | 0.576 | 0.386 | 0.481 | 0.436 | 0.607 | 0.581 | 0.733 | 0.523 | 0.645
NCI-H23 | 0.363 |  | 0.411 | 0.441 | 0.402 | 1.01 | 1.11 | 0.973 | 0.998 | 1.09 | 0.248 | 0.201 | 0.227 | 0.214 | 0.202 | 0.47 | 0.581 | 0.491 | 0.516 | 0.497
ChaGo-K-1 | 0.893 | 0.922 | 0.874 | 0.943 | 0.897 | 1.04 | 1.09 | 0.788 | 1.06 | 0.946 | 0.684 | 0.53 | 0.743 | 0.617 | 0.507 | 0.761 | 1.05 | 0.625 | 0.725 | 0.732

Source: the supplement of paper PMC10307832
